Test results as given in the NIST ThermoML archive (doi:10.1021/je060271a).
Values joined by “and” are separate entries in the source; they are usually repeats but may differ in a detail not shown here. Equal values may be shown once. ± gives the expanded uncertainty stated by the source.

Settings: 283.14 K, Liquid, Vibrating tube method

For CCCCCCC(=O)OCC(COC(=O)CCCCCC)(COC(=O)CCCCCC)COC(=O)CCCCCC [pentaerythritol tetraheptanoate], the mass density (99.9 kPa) was 986 ± 1.2 kg/m3, the mass density (100.4 kPa) was 985.9 ± 1.2 kg/m3 and 986 ± 1.2 kg/m3 and the mass density (100.6 kPa) was 985.8 ± 1.2 kg/m3. For the same molecule, the mass density (100.8 kPa) was 985.9 ± 1.2 kg/m3, the mass density (100.9 kPa) was 985.9 ± 1.2 kg/m3 and the mass density (104.1 kPa) was 985.9 ± 1.2 kg/m3. The mass density (108.1 kPa) was 985.9 ± 1.2 kg/m3, the mass density (116.6 kPa) was 986 ± 1.2 kg/m3 and the mass density (124.9 kPa) was 986 ± 1.2 kg/m3. For the same molecule, the mass density (130.8 kPa) was 986 ± 1.2 kg/m3, the mass density (135.4 kPa) was 985.9 ± 1.2 kg/m3 and the mass density (142 kPa) was 985.9 ± 1.2 kg/m3. The mass density (146.3 kPa) was 986 ± 1.2 kg/m3, the mass density (150.6 kPa) was 986 ± 1.2 kg/m3 and the mass density (154.5 kPa) was 986 ± 1.2 kg/m3. The mass density (158.5 kPa) was 986 ± 1.2 kg/m3, the mass density (164.2 kPa) was 986 ± 1.2 kg/m3 and the mass density (168.9 kPa) was 985.9 ± 1.2 kg/m3. For the same molecule, the mass density (174.6 kPa) was 986 ± 1.2 kg/m3, the mass density (181.1 kPa) was 986 ± 1.2 kg/m3 and the mass density (189.8 kPa) was 986 ± 1.2 kg/m3. The mass density (198.1 kPa) was 986 ± 1.2 kg/m3, the mass density (208.7 kPa) was 986 ± 1.2 kg/m3 and the mass density (218.8 kPa) was 986 ± 1.2 kg/m3. It also gave a mass density (231 kPa) of 985.9 ± 1.2 kg/m3, a mass density (246.9 kPa) of 986 ± 1.2 kg/m3 and a mass density (262.2 kPa) of 986 ± 1.2 kg/m3. The mass density (279.6 kPa) was 985.9 ± 1.2 kg/m3, the mass density (304.3 kPa) was 985.9 ± 1.2 kg/m3 and the mass density (328.1 kPa) was 986 ± 1.2 kg/m3. The mass density (354.9 kPa) was 986 ± 1.2 kg/m3, the mass density (383.4 kPa) was 986.2 ± 1.2 kg/m3 and the mass density (410.5 kPa) was 986.1 ± 1.2 kg/m3. The mass density (428.6 kPa) was 986.2 ± 1.2 kg/m3, the mass density (445.6 kPa) was 986.1 ± 1.2 kg/m3 and the mass density (459.5 kPa) was 986.2 ± 1.2 kg/m3. For the same molecule, the mass density (470.3 kPa) was 986.1 ± 1.2 kg/m3, the mass density (483.1 kPa) was 986.2 ± 1.2 kg/m3 and the mass density (493.7 kPa) was 986.2 ± 1.2 kg/m3. It also gave a mass density (504.3 kPa) of 986.1 ± 1.2 kg/m3, a mass density (518.6 kPa) of 986.2 ± 1.2 kg/m3 and a mass density (531.3 kPa) of 986.2 ± 1.2 kg/m3. The mass density (543.6 kPa) was 986.2 ± 1.2 kg/m3, the mass density (560.1 kPa) was 986.2 ± 1.2 kg/m3 and the mass density (574.5 kPa) was 986.2 ± 1.2 kg/m3. The mass density (588.8 kPa) was 986.2 ± 1.2 kg/m3, the mass density (607.2 kPa) was 986.2 ± 1.2 kg/m3 and the mass density (623.7 kPa) was 986.2 ± 1.2 kg/m3. It also gave a mass density (641.4 kPa) of 986.2 ± 1.2 kg/m3, a mass density (659.1 kPa) of 986.3 ± 1.2 kg/m3 and a mass density (682.8 kPa) of 986.3 ± 1.2 kg/m3. The mass density (703.5 kPa) was 986.3 ± 1.2 kg/m3, the mass density (725 kPa) was 986.2 ± 1.2 kg/m3 and the mass density (748.3 kPa) was 986.2 ± 1.2 kg/m3. For the same molecule, the mass density (777.3 kPa) was 986.4 ± 1.2 kg/m3, the mass density (803.3 kPa) was 986.3 ± 1.2 kg/m3 and the mass density (830.4 kPa) was 986.3 ± 1.2 kg/m3. The mass density (857.2 kPa) was 986.4 ± 1.2 kg/m3, the mass density (881.9 kPa) was 986.4 ± 1.2 kg/m3 and the mass density (894.4 kPa) was 986.4 ± 1.2 kg/m3. It also gave a mass density (910.2 kPa) of 986.5 ± 1.2 kg/m3, a mass density (922.9 kPa) of 986.5 ± 1.2 kg/m3 and a mass density (936.1 kPa) of 986.4 ± 1.2 kg/m3. The mass density (950.3 kPa) was 986.3 ± 1.2 kg/m3, the mass density (964.4 kPa) was 986.4 ± 1.2 kg/m3 and the mass density (981.7 kPa) was 986.3 ± 1.2 kg/m3. It also gave a mass density (997.4 kPa) of 986.4 ± 1.2 kg/m3, a mass density (1013.2 kPa) of 986.5 ± 1.2 kg/m3 and a mass density (1029.5 kPa) of 986.4 ± 1.2 kg/m3. It also gave a mass density (1046.2 kPa) of 986.4 ± 1.2 kg/m3, a mass density (1066 kPa) of 986.6 ± 1.2 kg/m3 and a mass density (1084 kPa) of 986.4 ± 1.2 kg/m3. It also gave a mass density (1102.6 kPa) of 986.5 ± 1.2 kg/m3, a mass density (1119.8 kPa) of 986.5 ± 1.2 kg/m3 and a mass density (1142.7 kPa) of 986.6 ± 1.2 kg/m3. The mass density (1162 kPa) was 986.6 ± 1.2 kg/m3, the mass density (1186.3 kPa) was 986.5 ± 1.2 kg/m3 and the mass density (1207.3 kPa) was 986.5 ± 1.2 kg/m3. The mass density (1229.4 kPa) was 986.6 ± 1.2 kg/m3, the mass density (1252.5 kPa) was 986.5 ± 1.2 kg/m3 and the mass density (1277.3 kPa) was 986.7 ± 1.2 kg/m3. It also gave a mass density (1301.1 kPa) of 986.6 ± 1.2 kg/m3, a mass density (1329.6 kPa) of 986.7 ± 1.2 kg/m3 and a mass density (1354.8 kPa) of 986.6 ± 1.2 kg/m3. The mass density (1386.2 kPa) was 986.6 ± 1.2 kg/m3, the mass density (1412.2 kPa) was 986.7 ± 1.2 kg/m3 and the mass density (1440.9 kPa) was 986.6 ± 1.2 kg/m3. It also gave a mass density (1469.5 kPa) of 986.6 ± 1.2 kg/m3, a mass density (1505.1 kPa) of 986.6 ± 1.2 kg/m3 and a mass density (1536 kPa) of 986.8 ± 1.2 kg/m3. For the same molecule, the mass density (1568.8 kPa) was 986.7 ± 1.2 kg/m3, the mass density (1609.6 kPa) was 986.8 ± 1.2 kg/m3 and the mass density (1645.7 kPa) was 986.8 ± 1.2 kg/m3. For the same molecule, the mass density (1682.5 kPa) was 986.8 ± 1.2 kg/m3, the mass density (1719 kPa) was 986.8 ± 1.2 kg/m3 and the mass density (1765.3 kPa) was 986.9 ± 1.2 kg/m3. It also gave a mass density (1804.9 kPa) of 986.9 ± 1.2 kg/m3, a mass density (1848.1 kPa) of 986.9 ± 1.2 kg/m3 and a mass density (1898.4 kPa) of 986.8 ± 1.2 kg/m3. For the same molecule, the mass density (1940.3 kPa) was 987 ± 1.2 kg/m3, the mass density (1966.1 kPa) was 986.9 ± 1.2 kg/m3 and the mass density (1976.7 kPa) was 987 ± 1.2 kg/m3. The mass density (1988.3 kPa) was 987.1 ± 1.2 kg/m3, the mass density (2001 kPa) was 987 ± 1.2 kg/m3 and the mass density (2021 kPa) was 987 ± 1.2 kg/m3. For the same molecule, the mass density (2110 kPa) was 987 ± 1.2 kg/m3, the mass density (2201.2 kPa) was 987.1 ± 1.2 kg/m3 and the mass density (2343.8 kPa) was 987.2 ± 1.2 kg/m3. For the same molecule, the mass density (2462.5 kPa) was 987.4 ± 1.2 kg/m3, the mass density (2487.8 kPa) was 987.3 ± 1.2 kg/m3 and the mass density (2506.9 kPa) was 987.3 ± 1.2 kg/m3.
